Laboratory results published in paper PMC11397727, “Fast Screening of Tyrosinase Inhibitors in Coreopsis tinctoria Nutt. by Ligand Fishing Based on Paper-Immobilized Tyrosinase” (Molecules, 2024).

Biological target: T1, Mushroom Tyrosinase (TYR) (Agaricus bisporus, UniProt C7FF04)
T1 construct: gene PPO3
Test: colorimetric L-Dopa oxidation assay, single-concentration inhibition at […]; also retrieved by ligand fishing on paper-immobilized tyrosinase
Format: biochemical

T1 sequence (C7FF04 2-392): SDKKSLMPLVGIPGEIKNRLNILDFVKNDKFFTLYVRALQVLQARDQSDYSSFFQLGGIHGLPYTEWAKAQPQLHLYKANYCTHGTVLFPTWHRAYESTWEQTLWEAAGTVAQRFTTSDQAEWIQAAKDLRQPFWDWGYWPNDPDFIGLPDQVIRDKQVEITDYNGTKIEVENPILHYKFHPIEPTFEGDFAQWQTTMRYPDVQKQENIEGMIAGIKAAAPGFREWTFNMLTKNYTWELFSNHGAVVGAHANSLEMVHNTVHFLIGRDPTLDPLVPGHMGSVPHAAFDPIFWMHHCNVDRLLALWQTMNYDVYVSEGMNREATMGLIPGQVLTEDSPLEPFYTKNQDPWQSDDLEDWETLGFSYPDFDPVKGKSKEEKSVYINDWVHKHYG

Compound `O=C(/C=C/c1ccc(O)c(O)c1)c1ccc(O[C@@H]2O[C@H](CO)[C@@H](O)[C@H](O)[C@H]2O)c(O)c1O` [compound 2, marein] has an inhibition at 25 µM of 29.4%.
